Experiments:
Experiment in all cases: CDK enzymology experiment in vitro, capillary mobility shift assay (MSA)
Format in all cases: biochemical
[1] = molecular target: T1, CDK6 (Homo sapiens, UniProt Q00534); details: read-out: CDK6 (nM) inhibitory IC50
T1 construct: purchased Carna Company

[2] = molecular target: T2, CDK2 (Homo sapiens, UniProt P24941); details: read-out: CDK2 (nM) inhibitory IC50
T2 construct: purchased Carna Company
Procedure, shortened: (§1)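 Recombinant kinases tested against peptide substrates in 1× kinase buffer, with compound added as a 100-fold DMSO stock. Top concentration 1, 10 or 30 μM, 3-fold dilutions over 10 points, in duplicate. Substrate conversion read by Caliper EZ Reader, normalised to no-enzyme and no-compound controls, and IC50 fitted with a variable-slope log(inhibitor)–response model.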

[3] = molecular target: T3, CDK1 (Homo sapiens, UniProt P06493); details: read-out: CDK1 (nM) inhibitory IC50
T3 construct: purchased Carna Company
Procedure, shortened: as §1

[4] = molecular target: T4, CDK9 (Homo sapiens, UniProt P50750); details: read-out: CDK9 (nM) inhibitory IC50
T4 construct: purchased Carna Company
Procedure, shortened: as §1

[5] = molecular target: T5, CDK4 (Homo sapiens, UniProt P11802); details: read-out: CDK4 (nM) inhibitory IC50
T5 construct: purchased Carna Company
Procedure, shortened: as §1

[6] = molecular target: T6, CDK7 (Homo sapiens, UniProt P50613); details: read-out: CDK7 (nM) inhibitory IC50
T6 construct: purchased Carna Company
Procedure, shortened: as §1

T3 sequence (P06493 whole entry): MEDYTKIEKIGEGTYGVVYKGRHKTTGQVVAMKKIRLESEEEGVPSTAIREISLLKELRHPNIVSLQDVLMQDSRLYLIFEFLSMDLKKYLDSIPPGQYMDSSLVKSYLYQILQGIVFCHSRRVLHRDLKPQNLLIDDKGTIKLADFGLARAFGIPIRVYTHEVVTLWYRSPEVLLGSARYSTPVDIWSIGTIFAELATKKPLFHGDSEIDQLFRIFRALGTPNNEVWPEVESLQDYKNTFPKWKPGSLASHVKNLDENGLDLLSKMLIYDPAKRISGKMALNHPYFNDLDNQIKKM
T3 sequence (P14635 whole entry partner): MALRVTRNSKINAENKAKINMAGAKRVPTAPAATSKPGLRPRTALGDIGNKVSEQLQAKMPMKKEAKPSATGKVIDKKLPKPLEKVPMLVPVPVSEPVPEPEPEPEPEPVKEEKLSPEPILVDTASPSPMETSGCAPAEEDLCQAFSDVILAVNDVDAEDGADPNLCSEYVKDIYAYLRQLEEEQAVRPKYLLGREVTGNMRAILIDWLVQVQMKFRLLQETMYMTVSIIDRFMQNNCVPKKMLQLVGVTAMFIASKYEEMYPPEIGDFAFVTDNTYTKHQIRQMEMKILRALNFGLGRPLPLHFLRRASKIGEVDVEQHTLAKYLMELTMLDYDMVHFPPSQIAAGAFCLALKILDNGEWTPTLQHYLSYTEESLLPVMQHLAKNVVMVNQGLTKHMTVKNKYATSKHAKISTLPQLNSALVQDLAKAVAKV
T5 sequence (P11802 whole entry): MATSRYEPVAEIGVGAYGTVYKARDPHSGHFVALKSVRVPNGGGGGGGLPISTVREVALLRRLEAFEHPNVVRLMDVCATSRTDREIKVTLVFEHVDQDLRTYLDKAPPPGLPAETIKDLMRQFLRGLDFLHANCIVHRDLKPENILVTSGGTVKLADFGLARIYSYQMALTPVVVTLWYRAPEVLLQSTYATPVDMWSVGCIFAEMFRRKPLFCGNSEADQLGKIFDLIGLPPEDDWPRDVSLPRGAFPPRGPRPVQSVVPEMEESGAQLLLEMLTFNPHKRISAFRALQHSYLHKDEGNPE
T5 sequence (P30281 whole entry partner): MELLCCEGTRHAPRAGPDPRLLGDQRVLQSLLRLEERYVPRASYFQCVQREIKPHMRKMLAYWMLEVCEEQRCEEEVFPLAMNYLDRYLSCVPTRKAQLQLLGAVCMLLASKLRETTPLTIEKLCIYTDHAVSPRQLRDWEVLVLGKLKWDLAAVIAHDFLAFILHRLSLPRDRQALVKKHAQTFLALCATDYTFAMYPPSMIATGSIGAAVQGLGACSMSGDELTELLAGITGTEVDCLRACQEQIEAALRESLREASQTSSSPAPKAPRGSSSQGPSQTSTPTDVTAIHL
T1 sequence (Q00534 whole entry): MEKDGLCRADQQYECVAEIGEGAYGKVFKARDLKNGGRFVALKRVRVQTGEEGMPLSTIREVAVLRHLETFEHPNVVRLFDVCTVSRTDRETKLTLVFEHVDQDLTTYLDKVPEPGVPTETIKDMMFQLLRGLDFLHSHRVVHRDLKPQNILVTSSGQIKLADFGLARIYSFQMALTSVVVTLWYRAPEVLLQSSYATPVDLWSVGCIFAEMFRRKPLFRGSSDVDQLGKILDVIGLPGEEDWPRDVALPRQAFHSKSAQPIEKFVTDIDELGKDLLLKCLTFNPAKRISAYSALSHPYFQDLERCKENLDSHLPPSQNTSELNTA
T1 sequence (P30281 whole entry partner): as the sequence (P30281 whole entry partner) above
T4 sequence (P50750 whole entry): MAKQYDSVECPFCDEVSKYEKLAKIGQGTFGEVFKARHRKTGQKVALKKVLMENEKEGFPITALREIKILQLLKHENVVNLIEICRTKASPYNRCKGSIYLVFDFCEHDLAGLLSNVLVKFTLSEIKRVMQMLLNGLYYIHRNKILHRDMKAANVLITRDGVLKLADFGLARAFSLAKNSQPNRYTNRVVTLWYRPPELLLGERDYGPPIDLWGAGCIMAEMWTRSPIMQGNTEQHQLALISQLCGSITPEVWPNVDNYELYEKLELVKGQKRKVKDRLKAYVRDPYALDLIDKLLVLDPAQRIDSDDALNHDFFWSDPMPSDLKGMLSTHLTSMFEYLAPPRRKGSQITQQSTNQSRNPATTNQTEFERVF
T4 sequence (O60563 whole entry partner): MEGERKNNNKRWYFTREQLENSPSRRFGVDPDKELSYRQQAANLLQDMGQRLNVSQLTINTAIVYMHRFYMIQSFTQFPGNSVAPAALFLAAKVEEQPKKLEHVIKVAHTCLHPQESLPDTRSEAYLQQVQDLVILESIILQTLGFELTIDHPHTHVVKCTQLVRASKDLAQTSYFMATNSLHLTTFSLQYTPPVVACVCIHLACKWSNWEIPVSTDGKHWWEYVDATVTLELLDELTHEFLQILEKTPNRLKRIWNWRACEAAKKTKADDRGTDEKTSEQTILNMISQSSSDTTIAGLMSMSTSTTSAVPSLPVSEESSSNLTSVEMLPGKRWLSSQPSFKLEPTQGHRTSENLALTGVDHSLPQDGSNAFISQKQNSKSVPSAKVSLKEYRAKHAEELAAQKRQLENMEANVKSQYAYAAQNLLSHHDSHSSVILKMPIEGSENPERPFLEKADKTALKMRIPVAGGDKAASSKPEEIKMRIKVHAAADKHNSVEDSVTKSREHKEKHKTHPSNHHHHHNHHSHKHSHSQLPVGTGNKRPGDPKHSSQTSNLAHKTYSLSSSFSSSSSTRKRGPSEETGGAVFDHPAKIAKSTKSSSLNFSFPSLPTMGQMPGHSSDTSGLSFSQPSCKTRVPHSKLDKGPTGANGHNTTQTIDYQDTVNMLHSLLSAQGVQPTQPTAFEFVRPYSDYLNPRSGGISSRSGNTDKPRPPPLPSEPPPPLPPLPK
T6 sequence (P50613 whole entry): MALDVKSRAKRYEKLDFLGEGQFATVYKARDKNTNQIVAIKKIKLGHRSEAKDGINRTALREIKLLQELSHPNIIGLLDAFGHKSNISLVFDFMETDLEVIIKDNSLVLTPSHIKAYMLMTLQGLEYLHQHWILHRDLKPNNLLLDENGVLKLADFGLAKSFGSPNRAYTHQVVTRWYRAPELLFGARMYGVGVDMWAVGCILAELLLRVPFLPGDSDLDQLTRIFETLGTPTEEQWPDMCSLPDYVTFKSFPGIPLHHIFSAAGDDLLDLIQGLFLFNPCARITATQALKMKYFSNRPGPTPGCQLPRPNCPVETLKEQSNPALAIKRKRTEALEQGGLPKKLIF
T6 sequence (P51946 whole entry partner): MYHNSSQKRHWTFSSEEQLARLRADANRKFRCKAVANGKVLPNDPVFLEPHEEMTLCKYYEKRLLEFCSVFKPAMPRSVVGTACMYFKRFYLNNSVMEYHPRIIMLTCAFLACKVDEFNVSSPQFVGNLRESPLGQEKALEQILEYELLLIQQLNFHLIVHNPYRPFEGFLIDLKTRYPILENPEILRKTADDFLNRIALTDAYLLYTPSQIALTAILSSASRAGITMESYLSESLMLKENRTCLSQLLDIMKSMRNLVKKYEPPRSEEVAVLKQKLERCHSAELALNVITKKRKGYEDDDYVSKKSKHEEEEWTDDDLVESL
T6 sequence (P51948 whole entry partner): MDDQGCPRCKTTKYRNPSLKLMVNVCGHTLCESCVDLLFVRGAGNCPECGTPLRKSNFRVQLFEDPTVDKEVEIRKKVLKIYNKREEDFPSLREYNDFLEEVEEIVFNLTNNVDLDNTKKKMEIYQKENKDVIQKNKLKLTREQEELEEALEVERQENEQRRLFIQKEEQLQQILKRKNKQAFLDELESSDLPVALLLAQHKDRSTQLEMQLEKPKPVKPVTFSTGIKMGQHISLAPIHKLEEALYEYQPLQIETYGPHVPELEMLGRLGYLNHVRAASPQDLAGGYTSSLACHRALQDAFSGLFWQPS

SMILES | IC50 [1] [nM] | IC50 [2] [nM] | IC50 [3] [nM] | IC50 [4] [nM] | IC50 [5] [nM] | IC50 [6] [nM]
O=S(=O)(c1ccc(N2CCNC(C(F)(F)F)C2)cc1)N1CCC(Nc2ncc(C(F)(F)F)c(O[C@H]3CCOC3)n2)CC1 (stereo partly drawn) [Compound 147] | 0.5 to 2.5 | 0.5 to 2.5 | 2.5 to 10 | 50 to 100 | 0.5 to 2.5 | 10 to 50
CN(C)C1CCN(c2ccc(S(=O)(=O)N3CCC(Nc4ncc(C(F)(F)F)c(O[C@H]5CCOC5)n4)CC3)cc2)CC1 [Compound 132] | 0.5 to 2.5 | < 0.5 | 2.5 to 10 | 100 to 1000 | 0.5 to 2.5 | 10 to 50
O=S(=O)(c1ccc(C2CCNCC2)c(F)c1)N1CCC(Nc2ncc(C(F)(F)F)c(O[C@H]3CCOC3)n2)CC1 [Compound 122] | 0.5 to 2.5 | < 0.5 | 10 to 50 | 100 to 1000 | 0.5 to 2.5 | 10 to 50
O=S(=O)(c1ccc(C2CNC2)cc1)N1CCC(Nc2ncc(C(F)(F)F)c(O[C@H]3CCOC3)n2)CC1 [Compound 131] | 0.5 to 2.5 | < 0.5 | 2.5 to 10 | 100 to 1000 | 0.5 to 2.5 | 2.5 to 10
O=S(=O)(c1ccc(C2=CCNC2)cc1)N1CCC(Nc2ncc(C(F)(F)F)c(O[C@H]3CCOC3)n2)CC1 [Compound 146] | 0.5 to 2.5 | < 0.5 | 2.5 to 10 | 100 to 1000 | 0.5 to 2.5 | 2.5 to 10
O=S(=O)(c1ccc(N2CC3(CNC3)C2)cc1)N1CCC(Nc2ncc(C(F)(F)F)c(O[C@H]3CCOC3)n2)CC1 [Compound 144] | 0.5 to 2.5 | < 0.5 | 2.5 to 10 | 100 to 1000 | 0.5 to 2.5 | 2.5 to 10
Cn1cc(S(=O)(=O)N2CCC(Nc3ncc(C#N)c(N[C@H]4CCOC4)n3)CC2)cn1 [Compound 44] | 50 to 100 | 2.5 to 10 | 100 to 1000 | > 1000 | 50 to 100 | 100 to 1000
CS(=O)(=O)N1CCC(Nc2ncc(C(F)(F)F)c(NC3CCCC3)n2)CC1 [Example 5, N^4-Cyclopentyl-N^2-(1-(methylsulfonyl)piperidin-4-yl)-5-(trifluoromethyl)pyrimidine-2,4-diamine] | 10 to 50 | 2.5 to 10 | 100 to 1000 | 100 to 1000 | 10 to 50 | 10 to 50
O=S(=O)(c1ccc([C@H]2CCNC2)cc1)N1CCC(Nc2ncc(C(F)(F)F)c(O[C@H]3CCOC3)n2)CC1 (single isomer, unassigned) [Compound 152] | 0.5 to 2.5 | 0.5 to 2.5 | 2.5 to 10 | 100 to 1000 | 0.5 to 2.5 | 10 to 50
O=S(=O)(c1ccc([C@@H]2CCNC2)cc1)N1CCC(Nc2ncc(C(F)(F)F)c(O[C@H]3CCOC3)n2)CC1 (single isomer, unassigned) [Compound 151] | 0.5 to 2.5 | 0.5 to 2.5 | 10 to 50 | 100 to 1000 | 0.5 to 2.5 | 10 to 50
CN(C)CCN(c1nc(NC2CCN(S(=O)(=O)c3cnn(C)c3)CC2)ncc1C#N)C1CCCC1 [Compound 148] | 100 to 1000 | 10 to 50 | 100 to 1000 | > 1000 | 100 to 1000 | 100 to 1000
Cc1cc(S(=O)(=O)N2CCC(Nc3ncc(C(F)(F)F)c(O[C@H]4CCOC4)n3)CC2)ccc1C1=CCNCC1 [Compound 154] | 0.5 to 2.5 | 0.5 to 2.5 | 10 to 50 | 100 to 1000 | 0.5 to 2.5 | 10 to 50
Cn1cc(-c2ccc(S(=O)(=O)N3CCC(Nc4ncc(C(F)(F)F)c(O[C@H]5CCOC5)n4)CC3)cc2)cn1 [Compound 142] | 0.5 to 2.5 | < 0.5 | 0.5 to 2.5 | 10 to 50 | 0.5 to 2.5 | 2.5 to 10
Cn1cc(S(=O)(=O)N2CCC(Nc3ncc(C#N)c(NC4CCCC4)n3)CC2)cn1 [Compound 31] | 0.5 to 2.5 | 0.5 to 2.5 | 50 to 100 | 100 to 1000 | 2.5 to 10 | 100 to 1000
O=S(=O)(c1ccc(N2CCNCC2)nc1)N1CCC(Nc2ncc(C(F)(F)F)c(O[C@H]3CCOC3)n2)CC1 [Compound 153] | 0.5 to 2.5 | < 0.5 | 2.5 to 10 | 100 to 1000 | 0.5 to 2.5 | 2.5 to 10
O=S(=O)(c1ccc(N2CC[C@H](O)C2)cc1)N1CCC(Nc2ncc(C(F)(F)F)c(O[C@H]3CCOC3)n2)CC1 [Compound 141] | 0.5 to 2.5 | < 0.5 | 2.5 to 10 | 100 to 1000 | 0.5 to 2.5 | 10 to 50
CC1(O)CCN(c2ccc(S(=O)(=O)N3CCC(Nc4ncc(C(F)(F)F)c(O[C@H]5CCOC5)n4)CC3)cc2)CC1 [Compound 133] | 0.5 to 2.5 | < 0.5 | 2.5 to 10 | 50 to 100 | 0.5 to 2.5 | 10 to 50

Other lines, results leading:

IC50 [1] [nM] | IC50 [2] [nM] | IC50 [3] [nM] | IC50 [4] [nM] | IC50 [5] [nM] | IC50 [6] [nM] | SMILES
0.5 to 2.5 | < 0.5 | 2.5 to 10 | 100 to 1000 | 0.5 to 2.5 | 2.5 to 10 | O=S(=O)(c1ccc(C2=CCCNC2)cc1)N1CCC(Nc2ncc(C(F)(F)F)c(O[C@H]3CCOC3)n2)CC1 [Example 112, (S)-4-((Tetrahydrofuran-3-yl)oxy)-N-(1-((4-(1,2,5,6-tetrahydropyridin-3-yl)phenyl)sulfonyl)piperidin-4-yl)-5-(trifluoromethyl)pyrimidin-2-amine]
0.5 to 2.5 | 0.5 to 2.5 | 10 to 50 | 100 to 1000 | 2.5 to 10 | 50 to 100 | Cn1cc(-c2ccc(S(=O)(=O)N3CCC(Nc4ncc(C#N)c(N[C@H]5CCOC5)n4)CC3)cc2)cn1 [Example 8, (S)-2-((1-((4-(1-Methyl-1H-pyrazol-4-yl)phenyl)sulfonyl)piperidin-4-yl)amino)-4-((tetrahydrofuran-3-yl)amino)pyrimidine-5-carbonitrile]
0.5 to 2.5 | 0.5 to 2.5 | 10 to 50 | 100 to 1000 | 0.5 to 2.5 | 10 to 50 | N#Cc1cnc(NC2CCN(S(=O)(=O)c3ccc(C4=CCNCC4)cc3)CC2)nc1NC1CCCC1 [Example 15, 4-(Cyclopentylamino)-2-((1-((4-(1,2,3,6-tetrahydropyridin-4-yl)phenyl)sulfonyl)piperidin-4-yl)amino)pyrimidine-5-carbonitrile]
0.5 to 2.5 | < 0.5 | 2.5 to 10 | 100 to 1000 | < 0.5 | 2.5 to 10 | C[C@@H]1CN(c2ccc(S(=O)(=O)N3CCC(Nc4ncc(C(F)(F)F)c(O[C@H]5CCOC5)n4)CC3)cn2)C[C@H](C)N1 [Example 117]
0.5 to 2.5 | < 0.5 | 2.5 to 10 | 100 to 1000 | 0.5 to 2.5 | 2.5 to 10 | O=S(=O)(c1ccc(C2=CCNCC2)cc1)N1CCC(Nc2ncc(C(F)(F)F)c(O[C@H]3CCOC3)n2)CC1 [Example 100, (S)-4-((Tetrahydrofuran-3-yl)oxy)-N-(1-((4-(1,2,3,6-tetrahydropyridin-4-yl)phenyl)sulfonyl)piperidin-4-yl)-5-(trifluoromethyl)pyrimidin-2-amine]
0.5 to 2.5 | < 0.5 | 2.5 to 10 | 100 to 1000 | 0.5 to 2.5 | 2.5 to 10 | O=S(=O)(c1ccc([C@H]2CCCNC2)cc1)N1CCC(Nc2ncc(C(F)(F)F)c(O[C@H]3CCOC3)n2)CC1 (single isomer, unassigned) [Example 115]
< 0.5 | < 0.5 | 2.5 to 10 | 100 to 1000 | 0.5 to 2.5 | 2.5 to 10 | C[C@H]1CN(c2ccc(S(=O)(=O)N3CCC(Nc4ncc(C(F)(F)F)c(O[C@H]5CCOC5)n4)CC3)cc2)C[C@H](C)N1 [Example 168]
10 to 50 | 0.5 to 2.5 | 10 to 50 | 100 to 1000 | 10 to 50 | 10 to 50 | Cn1cc(S(=O)(=O)N2CCC(Nc3ncc(C(F)(F)F)c(O[C@H]4CCOC4)n3)CC2)cn1 [Example 7, (S)—N-(1-((1-Methyl-1H-pyrazol-4-yl)sulfonyl)piperidin-4-yl)-4-((tetrahydrofuran-3-yl)oxy)-5-(trifluoromethyl)pyrimidin-2-amine]
0.5 to 2.5 | < 0.5 | 2.5 to 10 | 100 to 1000 | 0.5 to 2.5 | 10 to 50 | O=S(=O)(c1ccc(N2CCNCC2)cc1)N1CCC(Nc2ncc(C(F)(F)F)c(O[C@H]3CCOC3)n2)CC1 [Example 116]
0.5 to 2.5 | < 0.5 | 2.5 to 10 | 100 to 1000 | 0.5 to 2.5 | 2.5 to 10 | O=S(=O)(c1ccc([C@@H]2CCCNC2)cc1)N1CCC(Nc2ncc(C(F)(F)F)c(O[C@H]3CCOC3)n2)CC1 (single isomer, unassigned) [Example 114]
10 to 50 | < 0.5 | 2.5 to 10 | 100 to 1000 | 2.5 to 10 | 10 to 50 | O=S(=O)(c1cnn(CCO)c1)N1CCC(Nc2ncc(C(F)(F)F)c(O[C@H]3CCOC3)n2)CC1 [Example 27]
